Patent US5614562A, “Method of treating drug resistant tumor cells using organoselenones” (The University of Sourthern California, priority 1992, dated 1997)
pIC50: −log10 of the molar value. ≈ marks a conversion by molar mass, not a printed value.

Experiments:
[1] = Swain-Scott product competition of nitrogen and oxygen nucleophiles vs NBP (second-order rate constant ratios); format: physicochemical
Text: (§1) The properties of nucleophilicity and electivity can be quantitatively expressed as n and s constants in the Swain-Scott linear free energy relationship. It has been shown that s and n constants of biological alkylating agents and nucleophiles, respectively, can be readily determined with high precision, using 4-(4-nitrobenzyl)pyridine (NBP) as a competitive substrate for alkyl product formation (Spears, C. P. Mol. Pharmacl.19:496-504,1981; Barbin,A.,Bereziat, A., O'Neill, I. K., and Bartsch, H. Chem.-Biol. Interact,73:261-277, 1990; Kang, S. I., and Spears,C. P. J. Med. Chem. 33:1544-1547, 1990). Broad-spectrum antitumor alkylating agents show uniformly high s constants Spears, C. P. Mol.Pharmacol. 19:496-504, 1981; in contrast, mutagenically efficient alkylating agents show low values (Peterson,A. R., Landolph, J. R., Peterson, H., Spears, C. P., and Heidelberger, C. Cancer Res. 41:3095-3099, 1981; Barbin, A., and Bartsch, H. Mut. Res.215:95-106, 1989).
(§2) FIG. 1 is a Swain-Scott plot of the ratio of second-order rate constants, log (ky /knbp) for several model sulfur, nitrogen, and oxygen nucleophiles in their reactions with 2-chloroethyl 4-methoxy-phenyl selenone ("CEMOS"), vs. their published nucleophilicity nCH3 Br constants. Values of n were taken to be 2.72 for acetate (AcO--), 3.3 for ascorbate, 3.6 for pyridine, 4.0 for azide (N3), 3.94 for nitrite, 5.1 for thiol (SH), 6.18 for sulfite (SO3^2-), 6.36 for thiosulfate (S2 O3^2-), and 6.6 for thiophosphate (HPSO3^2-) (derived from the Ogston "Competition Factor") (Ogston, A. G., Holiday, E. R., Philpot, J. S. L., and Stocken, L. A. Trans.Faraday Soc. 44:45-52, 1948).
The slope of the linear regression equation through the 5 nitrogen and oxygen nucleophiles gives a Swain-Scott selectivity constant, s, equal to 1.79, by Eq. A, shown in FIG. 1:
(§3) ^a By competition between S2 O3^2- and NBP log(kS
(§4) /knbp) or N3^- and NBP log(kN /knbp ) at
(§5) 37° C. and 10 h, in 52% aqueous acetone, using initial
(§6) concentrations of 0.0435 mM and 0.0217 mM of 2chloroethyl phenyl selenone
(§7) and nornitrogen mustard, respectively, as described. Values, experimental

[2] = Swain-Scott product competition of sulfur nucleophiles vs NBP (second-order rate constant ratios); format: physicochemical
Text: as §1, §2
Extrapolation of Eq. A predicts that the log (ky /knbp) values for the thiol nucleophiles should have ranged from 3 to 5. However, the measured ratios of second-order rate constants were approximately 100-fold lower than this expectation. Also, the linear regression relationship, Eq. B (FIG. 1), for correlation of log (ky /knbp) values vs. nCH3 Br constants gave a sulfur nucleophile selectivity constant, s, equal to 0.84, approximately one-half of the value for reaction with nitrogen and oxygen nucleophiles:
as §3, §4, §5, §6, §7

[3] = format: physicochemical; details: FIG. 1 experiments
[4] = test system: P388 murine leukemia ascites cells; assay: In vivo growth inhibition of P388 leukemia ascites in mice; design: species or system murine; BDF1 mice
Method: In FIG. 2 and Table II are shown the results of in vivo antitumor testing of 2-chloroethyl aryl selenones against murine P388 Leukemia ascites cells.
Examples 5-8 consisted of the use of 2-chloroethyl 4-methoxy-phenyl selenone to treat the mice. Examples 9-12 were the same as example 5 except 2-chloroethyl phenyl selenone was employed.
The maximally tolerated duration of the highest dose shown in FIG. 2 and Table II, 6 mg/kg/day i.p. of 2-chloroethyl phenyl selenone, was 10 days in a separate experiment. In the experiments shown, i.p. drug was administered for 5 consecutive days, Days 1-5, beginning the day after tumor inoculation (on Day 0).
Mice were inoculated i.p. with 1×10^6 cells of P388 murine leukemia ascites passaged in BDF1 mice, in a volume of 0.1 ml. The selenones were formulated in normal (0.9%, w/v) NaCl for an injection volume of 0.3 ml. Control mice (12 in each group) received i.p. saline alone comparative examples 1 and 2. For each dose level and drug, 6 mice per group were used.
The plateauing of weight increase, at Days 8-9, is consistent with classical Gompertizian tumor growth kinetics (Laird, A. K. Brit. J. Cancer 18:490-502, 1964). The delays observed in the time period before the onset of the exponential phase of weight increase are given in Table II, defined as the Growth Delay.
^a Calculated from Day at which weight first exceeded baseline (Day 0

[5] = test system: L1210/0; assay: Cytotoxicity, 48-hr exposure of L1210/0 leukemia cells; format: cell-based, murine; details: Mus musculus, L1210/0; 48-hr exposure; read-out: IC50 L1210/0
Text: (§8) Murine L1210 leukemia cells sensitive (L1210/0) and resistant (L1210/L-PAM)to L-phenylalanine mustard were obtained that are adaptable to either in vitro or in vivo passage.
(§9) Broad resistance of the L1210/L-PAM cell line is shown by the approximately 4-fold and 9-fold increases in IC50, compared to L1210/0, for L-PAM and mechlorethamine, respectively (Comparative Examples 3 and 4). […].

[6] = test system: L1210/L-PAM; assay: Cytotoxicity, 48-hr exposure of L-PAM resistant L1210/L-PAM leukemia cells; format: cell-based, murine; details: 48-hr exposure
Text: as §8, §9

[7] = test system: HCT116; assay: In vitro cytotoxicity, HCT116 human colon carcinoma; format: cell-based; details: Homo sapiens, HCT-116; data provided by Bristol-Myers Laboratories
Text: ^b Cell lines: HCT116 human colon (sensitive to VP16 and VM26)

[8] = test system: HCT/VM46; assay: In vitro cytotoxicity, VM26 resistant HCT/VM46 human colon carcinoma; format: cell-based
Text: | HCT/VM46 human colon, VM26 resistant

[9] = test system: HCT/VP35; assay: In vitro cytotoxicity, VP16 resistant HCT/VP35 human colon carcinoma; format: cell-based
Text: | HCT/VP35 human colon, VP16 resistant

[10] = literature value; cited from earlier work
[11] = IC50 divided by IC50 for HCT116

In the case of `COc1ccc([Se](=O)(=O)CCCl)cc1` [2-chloroethyl 4-methoxy-phenyl selenone], the “Swain-Scott selectivity constant, s (nitrogen and oxygen nucleophiles)” value ([1]; 5 nitrogen and oxygen nucleophiles, Eq. A, FIG. 1) was 1.79, the “susceptibility to aqueous hydrolysis” value ([1]; from intercept of Eq. A) was “extremely low susceptibility” and the “log (ky/knbp) at n=3.6” value ([1]; n=3.6 (pyridine)) was “nearly zero”. For the same compound, the “intercept of Eq. A, log (ky/knbp) vs. nCH3Br” value ([1]; nitrogen and oxygen nucleophiles, Eq. A, listed as CEMOS) was 6.40, the “selectivity within the thiol series” value [2] was “abnormally low” and the “measured ratios of second-order rate constants lower than expectation” value ([2]; sulfur nucleophiles vs. extrapolation of Eq. A) was “approximately 100 fold”. For the same compound, the “sulfur nucleophile selectivity constant, s” value ([2]; sulfur nucleophiles, Eq. B, FIG. 1) was 0.84, the “alkylating activity in the FIG. 1 experiments” value [3] was 103% and the Growth delay ([4]; 0.5 mg/kg daily i.p., Days 1-5 (total 2.5 mg/kg), Ex. 5) was 0 days. For the same compound, the Growth delay ([4]; 1.0 mg/kg daily i.p., Days 1-5 (total 5 mg/kg), Ex. 6, Ex. 9) was 0 days, the Growth delay ([4]; 2.0 mg/kg daily i.p., Days 1-5 (total 10 mg/kg), Ex. 7, Ex. 10) was 3 days and the Growth delay ([4]; 4.0 mg/kg daily i.p., Days 1-5 (total 20 mg/kg), Ex. 8, Ex. 11) was 7 days. For the same compound, the relative antitumor effectiveness ([4]; vs. parent 2-chloroethyl phenyl selenone) was “less effective than the parent 2-chloroethyl phenyl selenone”, the pIC50 [5] was 6.44 and the “Ratio of IC50s (L1210/L-PAM vs L1210/0)” value [6] was 0.9. For the same compound, the pIC50 ([6]; Mus musculus, L1210/LPAM, read-out: IC50 L1210/L-PAM) was 6.44, the IC50 [7] was 1.01 µg/mL (≈ 3.59 µM) and the IC50 ([8]; Homo sapiens, VM26 resistant, data provided by Bristol-Myers Laboratories) was 0.42 µg/mL (≈ 1.49 µM). The “ratio of IC50 values HCT/VM46 vs HCT116” value [8, 11] was 0.4, the IC50 ([9]; Homo sapiens, HCT/VP35, VP16 resistant, data provided by Bristol-Myers Laboratories) was 0.6 µg/mL (≈ 2.13 µM) and the “ratio of IC50 values HCT/VP35 vs HCT116” value [9, 11] was 0.6. For the same compound, the “alkylating activity reported (Kang and Spears 1990)” value [10] was 100%.
